The values that follow come from patent publication US8884097B1, “Method to condition an invertebrate to detect a concentration range of a chemical compound” (The United States of America as represented by the …, priority 2011, dated 2014).

The test system of assay [1] is Microplitis croceipes. As to the kind of experiment: Conditioned food-searching response of wasps to individual odor concentrations. It counts as in vivo. As for the experimental part: Female wasps were conditioned to a 30 μl solution of indole (Spectrum Chemical MFG CORP., Gardena, Calif.) dissolved in dichloromethane at either 100 μg/ml or 1 μg/ml. The solvent was allowed to evaporate for one min before the assay. The conditioning arena consisted of a 9 cm d, 1.5 cm h metal ring covered with aluminum foil that was placed inside a glass petri dish (10 cm d and 1 cm h) containing the compound-laden filter paper (2.5 cm d). A small (4 mm^2) piece of filter paper laden with the sugar water (1 molar sucrose solution) was placed at the center of the metal ring covered with aluminum foil. A total of 9 holes (ca 1 mm d) were punctured around the tissue paper so that diffusing volatiles could be perceived as they fed on the sugar water. Wasps were allowed to feed for 10 s three times with 30 s between feedings. All conditioning and testing was done under a chemical fume hood. The conditioning arena was replaced with fresh materials after every 5 females (ca 10-15 min). Females were placed in a Plexiglas cage with water for 2 hrs before testing. A total of 20 females were conditioned per day over 2 days.
All test solutions were allowed to evaporate for 1 minute before being presented to the wasps. The test arena was the same as the conditioning arena except that only a single (ca 1 mm d) hole was punctured at the center of the aluminum foil covered metal ring. Wasps were placed close to the hole using a transfer vial. Measured were food-specific behaviors (Wäckers et al., 2002) which included intense substrate antennation with frequent tight turning, a distinct lowering of the head for food searching and attempts to enter the hole. Responses parameters included a recordation of both the number of turns and overall duration of the food searching. Each female was presented a single odor concentration. A total of 20 females (10 to high and 10 to low concentrations) were tested per day over 2 days. Kruskal-Wallis non-parametric ANOVA was used to test the effect of concentration on wasp responses (StatSoft, Inc. 2003).
The arena and procedure for testing were as described in Example 1. However, the wasps were conditioned via positive food conditioning of sugar-water to indole at 1 μg/ml. Additionally, the same wasp was also negatively food conditioned to 100 μg/ml of indole with water. Each female was test with a single indole concentration at either 100 μg/ml of indole or at 1 μg/ml. A total of 20 females (10 to high and 10 to low concentrations) were tested per day over 2 days.
The arena and procedure for testing were as described in Example 1. However, the wasps were conditioned via positive food conditioning of sugar-water to 30 μl of conditioning solution of skatole dissolved in dichloromethane at either 0.001 μg/ml, 0.01 μg/ml, 0.1 μg/ml, 1 μg/ml, 10 μg/ml, or 100 μg/ml. A 1 molar sucrose solution was used as the unconditioned stimulus (reward).

The test system of assay [2] is Microplitis croceipes. The description is as above. It counts as in vivo. Particulars: positively conditioned to 100 μg/ml and 1000 μg/ml, tested at 1000 μg/ml.
Setting [3] is: conditioned to 0.1 μg/ml, tested at 0.1 μg/ml.
Setting [4] is: conditioned to 0.1 μg/ml, tested at 1 μg/ml.
[5] abbreviates: conditioned to 1 μg/ml, tested at 0.1 μg/ml.
The mark [6] stands for this setting: conditioned to 1 μg/ml, tested at 1 μg/ml.
Setting [7] is: conditioned to 1 μg/ml, tested at 10 μg/ml.
Where [8] appears, read: conditioned to 10 μg/ml, tested at 1 μg/ml.
The mark [9] stands for this setting: conditioned to 10 μg/ml, tested at 10 μg/ml.
Where [10] appears, read: conditioned to 100 μg/ml, tested at 100 μg/ml.

Entries after “also recorded” stand apart in the source; their conditions may differ.

Take `Cc1c[nH]c2ccccc12` [skatole, 3-methyl-indole]: the “response of conditioned wasps (food searching time and turns)” value (from here on “response … (food searching time and turns)”) is “no responses” in assay [1] (setting [3]); “no responses” in assay [1] (setting [4]); “responded to both concentrations; also recorded: able to detect it” in assay [1] (setting [5]); “responded to both concentrations” in assay [1] (setting [6]); “only responded to the conditioning concentration” in assay [1] (setting [7]); “responded to both skatole concentrations” in assay [1] (setting [8]). Also, the “response … (food searching time and turns)” value in assay [1] (setting [9]) is reported as “responded to both skatole concentrations”; in assay [1] (conditioned to 10 μg/ml, tested at 100 μg/ml) it was “only responded to the conditioning concentration”; in assay [1] (conditioned to 100 μg/ml, tested at 10 μg/ml) it was “responded to both skatole concentrations”; in assay [1] (setting [10]) it was “responded to both skatole concentrations”; in assay [1] (conditioned to 100 μg/ml, tested at 1 mg/ml), “only responded to the conditioning concentration”; in assay [1] (positively conditioned to 100 μg/ml and 1000 μg/ml, tested at 10 μg/ml), “responded”. The “response … (food searching time and turns)” value is given as “responded to both of the conditioning concentrations” in assay [1] (positively conditioned to 100 μg/ml and 1000 μg/ml, tested at 100 μg/ml); “responded to both of the conditioning concentrations” in assay [2]. Further, the “conditioned response to the individual volatile” value in assay [1] (single odor experiment) is on record as “respond reliably”.
For the molecule `C=CC(C)=CCC=C(C)C` [ocimene, reference compound], in assay [1] (single odor experiment, non-conditioned floral odor), the “response of conditioned wasps to a non-conditioned odor” value is given as “do not respond”.
In the case of `C[C@]12CCC(=O)C[C@@H]1CC[C@@H]1[C@@H]2CC[C@]2(C)C=CC[C@@H]12` [androstenone, 5α-androst-16-en-3-one], the “response … (food searching time and turns)” value is listed as “responded to the conditioning concentration” in assay [1] (conditioned to 0.01 μg/ml, tested at 0.01 μg/ml); “only responded to the conditioning concentration” in assay [1] (conditioned to 0.1 μg/ml, tested at 0.01 μg/ml); “only responded to the conditioning concentration” in assay [1] (setting [3]); “only responded to the conditioning concentration” in assay [1] (setting [4]); “only responded to the conditioning concentration” in assay [1] (setting [5]); “only responded to the conditioning concentration” in assay [1] (setting [6]). Besides, the “response … (food searching time and turns)” value is given as “only responded to the conditioning concentration” in assay [1] (setting [7]), “did not respond to either concentration” in assay [1] (setting [8]) and “did not respond to either concentration” in assay [1] (setting [9]). Moreover, the “conditioned response to the individual volatile” value in assay [1] (single odor experiment) is “weak”.
On to `c1ccc2[nH]ccc2c1` [indole], for which the “response … (food searching time and turns)” value is “responded to the conditioned concentration” in assay [1] (setting [6]); “responded” in assay [1] (conditioned to 1 μg/ml, tested at 100 μg/ml); “did not respond” in assay [1] (conditioned to 100 μg/ml, tested at 1 μg/ml); “responded to the conditioned concentration” in assay [1] (setting [10]); “responded to the conditioned concentration” in assay [1] (positively conditioned to 1 μg/ml and negatively conditioned to 100 μg/ml, tested at 1 μg/ml); “did not respond to the negatively conditioned concentration” in assay [1] (positively conditioned to 1 μg/ml and negatively conditioned to 100 μg/ml, tested at 100 μg/ml). For the same molecule, the “conditioned response to the individual volatile” value in assay [1] (single odor experiment) was “respond reliably”. For the same molecule, in assay [1] (single odor experiment), the “duration of the conditioned response compared with skatole” value was “more prolonged response”.
